In patent US11306100B2, “Spirooxindole compounds as GSK3B inhibitors and process for preparation thereof” (COUNCIL OF SCIENTIFIC & INDUSTRIAL RESEARCH, priority 2017, dated 2022):

What was measured:
[1] = test system: NF-kB activity in PANC-1 cells; experiment: NFkB luciferase reporter assay; type: cell-based; settings: 48 h treatment, dose dependent
Experimental: In order to evaluate the effect of GSK3β inhibition on NF-kB activity, a reporter assay has been performed in the presence of identified inhibitors. To perform reporter assays, PANC-1 cells were cultured in a 48 well plate (16000 cells/well) overnight. Following day, cells were transfected with appropriate amount NF-kB reporter construct using lipofectamine 2000 as per manufacturer's protocol. After 16 hrs of post transfection cells were treated with identified GSK3β inhibitors and positive controls. After 48 h of treatment, cells were harvested in directly 1×ccl buffer. For measuring luciferase activity, 5 μl of cell lysate was mixed with 20 μl of assay reagent containing substrate for luciferase in MTP well plate as per manufacturer's protocol. The luciferase activity was determined by measuring luminescence at wavelengths in multimode reader. The protein concentration of the lysates was estimated by Bradford assay to normalize luciferase activity with protein present in the lysates. Then the relative luciferase activity was calculated according to control cells treated with DMSO set to 1. All experiments were performed in triplicates and the mean values with ±SD are presented here.

PANC-1 cells = experiment: Cell viability, Sulforhodamine B assay; type: cell-based; settings: for inhibition at 30 µM: Homo sapiens, PANC-1, 30 μM compound in combination with TRAIL (10 ηg/mL), read-out: inhibition of cell growth; for effectiveness against cell growth / sensitisation to TRAIL: in combination with TRAIL (10 ηg/mL), FIG. 3A
Experimental: Cell viability was measured using Sulforhodamine B assay. The cytotoxic effect of the compounds with GSK3β inhibitory potential was tested against PANC-1 cells. Initially, the PANC-1 cells were seeded in flat bottom 96-well plate (5000 cells/100 μL) in complete medium and cultured for 18 hrs under standard conditions. After 18 h the cells were treated with either the different concentration of compounds, standard drugs or DMSO as solvent control. The final DMSO concentration to cells was maintained <2% in all cytotoxic assays. Each compound was tested in triplicate and the cytotoxicity was determined as the average of that triplicate. Further, the plates were incubated for another 48 h in an incubator maintained at 37° C. with a constant supply of 5% CO2. The cells were fixed using 10% TCA and incubated for 1 h at 4° C. Then the plates were rinsed carefully with MQ water and air dried at room temperature. To all the wells of MTP plate 0.057% SRB solution was added and kept for approximately 30 min before it was rinsed off using 1% acetic acid. The plates were then air dried and 100 μL of 10 mM tris base was added to each well to solubilize the SRB before absorbance was measured at 510 nm. The measure of absorbance is directly proportional to cell growth and is thus used to calculate % reduction in the rate of cell proliferation according to control DMSO treated cells. All experiments were performed in triplicates; mean % age proliferation values with ±SD were plotted here.

| SMILES | NFkB luciferase activity [1] | inhibition at 30 µM (PANC-1 cells) [%] | effectiveness against cell growth / sensitisation to TRAIL (PANC-1 cells) |
| --- | --- | --- | --- |
| CCOC(=O)c1ccc(-c2ccccc2OCc2cn(CC3CC4(CO3)C(=O)Nc3ccccc34)nn2)nc1C (stereo not drawn) [AB-O, Ethyl 2-methyl-6-(2-((1-((2′-oxo-4,5-dihydro-2H-spiro[furan-3,3′-indoline]-5-yl)methyl)-1H-1,2,3-triazol-4-yl)methoxy)phenyl)nicotinate] | significantly decreased | 50 | more effective |
| COc1ccccc1N1CCN(CC2CC3(CO2)C(=O)Nc2ccccc23)CC1 (stereo not drawn) [AB-U, 5-((4-(2-Methoxyphenyl)piperazin-1-yl)methyl)-4,5-dihydro-2H-spiro[furan-3,3′-indolin]-2′-one] | significantly decreased | 50 | more effective |
